Experimental data as given in patent publication US5859004A, “Use of heterocyclic compounds for the treatment of conditions caused by malfunctioning of the nicotinic cholinergic system” (Novo Nordisk A/S, priority 1995, dated 1999).
pIC50, pKd: −log10 of the molar value. Read-outs that look alike come from different tables or passages of the source.

Key:
[1] = target: T1, nicotinic acetylcholine receptors (rat cortical receptors) (Rattus norvegicus, UniProt P09483+P12390); assay: Inhibition of specific binding of ^3 H-methylcarbamylcholine (^3 H-MCC); conditions: for Ratio Oxo/MCC: IC50 ^3 H-Oxo / IC50 ^3 H-MCC, selectivity nicotinic over muscarinic; for pIC50: rat cortical receptors, ^3 H-MCC 2 nM, 0° C., 60 min
T1 construct: Fresh or frozen rat, brain tissue (hippocampus or cortex) was homogenized; from tissue; host or cells: rat brain tissue (hippocampus or cortex)
From the text: The pharmacological properties of the compounds of the invention can be illustrated by determining their capability to inhibit the specific binding of ^3 H-methylcarbamylcholine (^3 H-MCC) (Abood and Grassi, Biochem. Pharmacol., Vol. 35, pp. 4199--4202, (1986)).
^3 H-MCC labels the nicotinic receptors in the CNS. The inhibitory effect on ^3 H-MMC binding reflects the affinity for nicotinic acetylcholine receptors.
Fresh or frozen rat, brain tissue (hippocampus or cortex) was homogenized in assay buffer (50 mM Tris-HCl, pH 7.4, 120 mM NaCl, 5 mM KCl, 2 mM CaCl2, 1 mM MgCl2) and centrifuged for 10 min. at 40.000×g. Pellets were subsequently reconstituted in assay buffer and an appropriate amount of tissue sample was mixed in tubes with ^3 H-methylcarbamylcholine (NEN, NET-951; final concentration 2 nM) and test drug. The tubes were incubated at 0° C. for 60 min. Unbound ligand was separated from bound ligand by vacuum filtration through GF/B filters presoaked in 0.5% polyethylenimine. Filters were washed three times with 5 ml wash buffer (50 mM Tris-HCl, pH 7.4) and transferred to vials. 4 ml scintillation fluid was added and the radioactivity was measured by scintillation counting. Unspecific binding was measured with 10 μM nicotine.
The IC50 values of the test compounds were determined by nonlinear regression analyses (GraphPad InPlot).
Table I illustrates the affinity of the compounds of the present invention for nicotinic and muscarinic receptors as determined by ^3 H-MCC and ^3 H-Oxo binding to rat cortical receptors. The compounds, however, show selective affinity for nicotinic receptors as compared to muscarinic receptors, i.e OXO/MCC>1.

[2] = target: muscarinic acetylcholine receptors (rat cortical receptors); assay: Inhibition of specific binding of ^3 H-Oxotremorine-M (^3 H-Oxo); conditions: rat cortex; ^3 H-Oxotremorine 1.0 nM, 25° C., 30 min
From the text: Furthermore, the pharmacological properties of the compounds of the invention can also be illustrated by determining their capability to inhibit the specific binding of ^3 H-Oxotremorine-M (^3 H-Oxo). Birdsdall N. J. M., Hulme E. C., and Burgen A. S. V. (1980). "The Character of Muscarinic Receptors in Different Regions of the Rat Brain". Proc. Roy. Soc. London (Series B) 207,1.
^3 H-Oxo labels muscarinic receptor in the CNS (with a preference for agonist domains of the receptors). Three different sites are labelled by ^3 H-Oxo. […] Using the present experimental conditions only the high and medium affinity sites are determined.
The inhibitory effects of compounds on ^3 H-Oxo binding reflects the affinity for muscarinic acetylcholine receptors.
All preparations are performed at 0°-4° C. unless otherwise indicated. Fresh cortex (0.1-1 g) from male Wistar rats (150-250 g) is homogenized for 5-10 s in 10 ml 20 mM Hepes pH: 7.4, with an Ultra-Turrax homogenizer. The homogenizer is rinsed with 10 ml of buffer and the combined suspension centrifuged for 15 min. at 40,000×g. The pellet is washed three times with buffer. In each step the pellet is homogenized as before in 2×10 ml of buffer and centrifuged for 10 min. at 40,000×g.
The final pellet is homogenized in 20 mM Hepes pH: 7.4 (100 ml per g of original tissue) and used for binding assay. Aliquots of 0.5 ml is added 25 μl of test solution and 25 μl of ^3 H-Oxotremorine (1.0 nM, final concentration) mixed and incubated for 30 min. at 25° C. Non-specific binding is determined in triplicate using arecoline (1 μg/ml, final concentration) as the test substance. After incubation samples are added 5 ml of ice-cold buffer and poured directly onto Whatman GF/C glass fiber filters under suction and immediately washed 2 times with 5 ml of ice-cold buffer. The amount of radioactivity on the filters are determined by conventional liquid scintillation counting. Specific binding is total binding minus non specific binding.
Test substances are dissolved in 10 ml water (if necessary heated on a steam-bath for less than 5 min.) at a concentration of 2.2 mg/ml. 25-75% inhibition of specific binding must be obtained before calculation of IC50. The test value will be given as IC50 (the concentration (nM) of the test substance which inhibits the specific binding of ^3 H-Oxo by 50%).
IC50 =(applied test substance concentration)×(Cx /Co
where Co is specific binding in control assays and Cx is the specific binding in the test assay. (The calculations assume normal mass-action kinetics).
Table I illustrates the affinity of the compounds of the present invention for nicotinic and muscarinic receptors as determined by ^3 H-MCC and ^3 H-Oxo binding to rat cortical receptors. […]

[3] = target: muscarinic acetylcholine receptors (rat cortical receptors); conditions: read-out: affinity of site labelled by ^3 H-Oxo, cited from earlier work
nicotinic = conditions: age related; cited from earlier work
Tourette's syndrome = conditions: in vivo; cited from earlier work
healthy humans = conditions: cited from earlier work
dopamine release = conditions: nucleus accumbens versus striatum; cited from earlier work
substantia nigra = conditions: chronic nicotine; lesioning; cited from earlier work
dopaminergic effects = conditions: various behavioral models; cited from earlier work
[4] = system: Alzheimer's disease patients; conditions: cited from earlier work

T1 sequence (P09483 31-630): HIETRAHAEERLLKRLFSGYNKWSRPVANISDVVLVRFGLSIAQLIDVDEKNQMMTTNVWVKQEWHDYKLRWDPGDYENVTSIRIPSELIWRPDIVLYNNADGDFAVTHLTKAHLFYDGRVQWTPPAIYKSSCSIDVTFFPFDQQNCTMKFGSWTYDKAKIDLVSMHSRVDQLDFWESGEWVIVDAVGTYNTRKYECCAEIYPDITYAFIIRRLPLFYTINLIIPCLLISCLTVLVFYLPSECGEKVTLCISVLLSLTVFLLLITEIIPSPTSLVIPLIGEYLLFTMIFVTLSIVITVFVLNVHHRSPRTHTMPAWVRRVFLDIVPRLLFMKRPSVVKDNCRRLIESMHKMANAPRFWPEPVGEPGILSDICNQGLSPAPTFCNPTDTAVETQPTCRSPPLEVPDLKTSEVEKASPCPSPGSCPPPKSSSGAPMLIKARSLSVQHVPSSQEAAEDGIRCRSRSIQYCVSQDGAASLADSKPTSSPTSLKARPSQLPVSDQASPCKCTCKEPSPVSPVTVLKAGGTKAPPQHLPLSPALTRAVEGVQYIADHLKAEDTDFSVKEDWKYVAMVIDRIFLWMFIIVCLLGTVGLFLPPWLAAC
T1 sequence (P12390 25-500): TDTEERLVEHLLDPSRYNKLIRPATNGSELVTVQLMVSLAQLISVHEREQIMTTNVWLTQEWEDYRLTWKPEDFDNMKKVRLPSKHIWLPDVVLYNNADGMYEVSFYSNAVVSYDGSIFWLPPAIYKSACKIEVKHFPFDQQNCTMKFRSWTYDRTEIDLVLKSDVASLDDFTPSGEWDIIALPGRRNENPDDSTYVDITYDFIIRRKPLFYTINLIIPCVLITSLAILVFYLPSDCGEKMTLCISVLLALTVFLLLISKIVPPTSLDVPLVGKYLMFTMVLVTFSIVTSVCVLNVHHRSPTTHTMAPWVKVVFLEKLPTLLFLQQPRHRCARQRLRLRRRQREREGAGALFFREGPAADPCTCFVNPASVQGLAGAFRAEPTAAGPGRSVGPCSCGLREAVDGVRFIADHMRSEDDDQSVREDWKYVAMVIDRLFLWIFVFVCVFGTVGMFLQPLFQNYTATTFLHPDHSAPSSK

SMILES | Ratio Oxo/MCC [1] | pIC50 [1] | pIC50 [2] | other results
Cc1cc(/C=C2\CN3CCCC2C3)on1.O=C(O)C(=O)O (stereo not shown) [Compound 3, (Z)-6-(3-methyl-5-isoxazolyl)methylene-1-azabicyclo[3.2.1]octane oxalate] | 5.9 | 6.79 | 6.02 | 
Cc1cc(/C=C2/CN3CCCC2C3)on1.O=C(O)C(=O)O (stereo not shown) [Compound 4, (E)-6-(3-methyl-5-isoxazolyl)methylene-1-azabicyclo[3.2.1]octane oxalate] | 22.1 | 7.09 | 5.75 | 
Cc1cc(/C=C2\CN3CCC2C3)on1.O=C(O)C(=O)O (stereo not shown) [Compound 5, (Z)-3-(3-methyl-5-isoxazolyl)methylene-1-azabicyclo[2.2.1]heptane oxalate] | 17.2 | 7.60 | 6.37 | 
Cc1cc(/C=C2/CN3CCC2C3)on1.O=C(O)C(=O)O (stereo not shown) [Compound 6, (E)-3-(3-methyl-5-isoxazolyl)methylene-1-azabicyclo[2.2.1]heptane oxalate] | 55.0 | 7.70 | 5.96 | 
C[N+](C)(C)CC#CCN1CCCC1=O [^3 H-Oxo, ^3 H-Oxotremorine-M] |  |  |  | pKd ([3]; high affinity site): 8.74; pKd ([3]; medium affinity site): 7.70; pKd ([3]; third (lowest affinity) site, not determined under the present conditions): 5.52
CNC1(C)C2CCC(C2)C1(C)C (stereo not shown) [mecamylamine] |  |  |  | cognitive impairment (nicotinic): cause cognitive impairment in an age related way
CN1CCCC1c1cccnc1 (stereo not shown) [nicotine] |  |  |  | effects in Tourette's syndrome (Tourette's syndrome): beneficial effects in Tourette's syndrome; attention and memory (healthy humans): improved attention and memory; dopamine release (dopamine release): stimulates dopamine release in the nucleus accumbens more potently than in striatum; protection against cell loss in the substantia nigra (substantia nigra): may protect against cell loss in the substantia nigra caused by lesioning; potentiation of dopaminergic effects (dopaminergic effects): will potentiate dopaminergic effects in various behavioral models; attention and memory [4]: improved attention and memory
